# From patent US12091405B2, “Substituted pyrazole compounds as indoleamine 2,3-dioxygenase inhibitors” (Merck Sharp & Dohme LLC, priority 2018, dated 2024)
# Target: IDO1 (Homo sapiens, UniProt P14902)
# Test: IDO1 Cellular Assay in HeLa Cells Stimulated with IFNγ
# Assay type: cell-based
# Settings: IFNγ 100 ng/mL, 300 uM L-tryptophan, about 48 hours, fluorescence readout, read-out: IDO1 HELA Cell Assay, IC50
# Sequence of IDO1 (P14902 whole entry): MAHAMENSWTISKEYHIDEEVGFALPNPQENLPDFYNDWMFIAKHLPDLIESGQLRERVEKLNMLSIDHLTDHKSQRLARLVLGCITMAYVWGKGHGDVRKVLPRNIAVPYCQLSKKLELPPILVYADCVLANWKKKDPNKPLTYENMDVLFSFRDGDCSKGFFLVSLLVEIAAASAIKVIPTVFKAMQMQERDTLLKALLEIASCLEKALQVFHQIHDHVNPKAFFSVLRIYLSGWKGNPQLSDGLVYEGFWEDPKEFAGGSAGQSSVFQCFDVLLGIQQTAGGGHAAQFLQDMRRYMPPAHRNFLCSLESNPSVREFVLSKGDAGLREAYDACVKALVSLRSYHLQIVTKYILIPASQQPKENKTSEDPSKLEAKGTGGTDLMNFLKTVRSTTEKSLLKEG
row,IC50 [nM],SMILES
1,1.6,"Cc1c(C2CCN(C(=O)Cn3nc(C(=O)N4CCC(O)CC4)c4c3C[C@H]3C[C@@H]43)CC2)cccc1C(F)(F)F [Example 2, 2-((3bR,4aR)-3-(4-hydroxypiperidine-1-carbonyl)-3b,4,4a,5-tetrahydro-1H-cyclopropa[3,4]cyclopenta[1,2-c]pyrazol-1-yl)-1-(4-(2-methyl-3-(trifluoromethyl)phenyl)piperidin-1-yl) ethanone]"
2,2.1,"CC(=O)NC1CCN(C(=O)c2nn(CC(=O)N3CCC(F)(c4cccc(C)c4C)CC3)c3c2[C@@H]2C[C@@H]2C3)CC1 [Example 12, N-(1-((3bR,4aR)-1-(2-(4-(2,3-dimethylphenyl)-4-fluoropiperidin-1-yl)-2-oxoethyl)-3b,4,4a,5-tetrahydro-1H-cyclopropa[3,4]cyclopenta[1,2-c]pyrazole-3-carbonyl)piperidin-4-yl)acetamide]"
3,195,"COc1ccccc1C1CCN(C(=O)Cn2nc(C(=O)N3C[C@@H](C)O[C@@H](C)C3)c3c2CCC3)CC1 [Example 75, 2-{3-[(2R,6S)-2,6-dimethylmorpholine-4-carbonyl]-5,6-dihydrocyclopenta[c]pyrazol-1(4H)-yl}-1-[4-(2-methoxyphenyl)piperidin-1-yl]ethan-1-one]"
4,126,"C[C@@H]1CN(C(=O)c2nn(CC(=O)N3CCC(c4c(F)ccc(F)c4F)CC3)c3c2CCC3)C[C@H](C)O1 [Example 152, 2-{3-[(2R,6S)-2,6-dimethylmorpholine-4-carbonyl]-5,6-dihydrocyclopenta[c]pyrazol-1(4H)-yl}-1-[4-(2,3,6-trifluorophenyl)piperidin-1-yl]ethan-1-one]"
5,45.5,"Cc1cccc(C2CCN(C(=O)Cn3nc(C(=O)N4CC[C@@H](O)C4)c4c3CCC4)CC2)c1C [Example 51, (R)-1-(4-(2,3-dimethylphenyl)piperidin-1-yl)-2-(3-(3-hydroxypyrrolidine-1-carbonyl)-5,6-dihydrocyclopenta[c]pyrazol-1(4H)-yl)ethan-1-one]"
6,54.5,"C[C@@H]1CN(C(=O)c2nn(CC(=O)N3CCC(c4ccc(Cl)c(Cl)c4)CC3)c3c2CCC3)C[C@H](C)O1 [Example 123, 1-[4-(3,4-dichlorophenyl)piperidin-1-yl]-2-{3-[(2R,6S)-2,6-dimethylmorpholine-4-carbonyl]-5,6-dihydrocyclopenta[c]pyrazol-1(4H)-yl}ethan-1-one]"
7,36.8,"Cc1cccc(C2CCN(C(=O)Cn3nc(C(=O)N4CC[C@@H](O)[C@@H](F)C4)c4c3C[C@@H]3C[C@H]43)CC2)c1C [Example 27, 1-[4-(2,3-dimethylphenyl)piperidin-1-yl]-2-{(3bS,4aS)-3-[(3S,4R)-3-fluoro-4-hydroxypiperidine-1-carbonyl]-3b,4,4a,5-tetrahydro-1H-cyclopropa[3,4]cyclopenta[1,2-c]pyrazol-1-yl}ethan-1-one]"
8,38.2,"CCc1ccccc1C1CCN(C(=O)Cn2nc(C(=O)N3C[C@@H](C)O[C@@H](C)C3)c3c2CCC3)CC1 [Example 109, 2-{3-[(2R,6S)-2,6-dimethylmorpholine-4-carbonyl]-5,6-dihydrocyclopenta[c]pyrazol-1(4H)-yl}-1-[4-(2-ethylphenyl)piperidin-1-yl]ethan-1-one]"
9,1.2,"Cc1cccc(C2CCN(C(=O)Cn3nc(C(=O)N4CC[C@@H](O)[C@H](F)C4)c4c3C[C@H]3C[C@@H]43)CC2)c1C [Example 24, 1-[4-(2,3-dimethylphenyl)piperidin-1-yl]-2-{(3bR,4aR)-3-[(3R,4R)-3-fluoro-4-hydroxypiperidine-1-carbonyl]-3b,4,4a,5-tetrahydro-1H-cyclopropa[3,4]cyclopenta[1,2-c]pyrazol-1-yl}ethan-1-one]"
10,59,"C[C@@H]1CN(C(=O)c2nn(CC(=O)N3CCC(c4cc(F)c(F)c(F)c4)CC3)c3c2CCC3)C[C@H](C)O1 [Example 126, 2-{3-[(2R,6S)-2,6-dimethylmorpholine-4-carbonyl]-5,6-dihydrocyclopenta[c]pyrazol-1(4H)-yl}-1-[4-(3,4,5-trifluorophenyl)piperidin-1-yl]ethan-1-one]"
11,1.9,"Cc1cccc(C2CCN(C(=O)Cn3nc(C(=O)N4CCC(OCCO)CC4)c4c3CCCC4)CC2)c1C [Example 38, 1-(4-(2,3-dimethylphenyl)piperidin-1-yl)-2-(3-(4-(2-hydroxyethoxy)piperidine-1-carbonyl)-4,5,6,7-tetrahydro-1H-indazol-1-yl)ethanone]"
12,99.5,"C[C@@H]1CN(C(=O)c2nn(CC(=O)N3CCC(c4ccc(C(F)F)cc4F)CC3)c3c2CCC3)C[C@H](C)O1 [Example 142, 1-{4-[4-(difluoromethyl)-2-fluorophenyl]piperidin-1-yl}-2-{3-[(2R,6S)-2,6-dimethylmorpholine-4-carbonyl]-5,6-dihydrocyclopenta[c]pyrazol-1(4H)-yl}ethan-1-one]"
13,153,"Cc1cccc(F)c1C1CCN(C(=O)Cn2nc(C(=O)N3C[C@@H](C)O[C@@H](C)C3)c3c2CCC3)CC1 [Example 158, 2-{3-[(2R,6S)-2,6-dimethylmorpholine-4-carbonyl]-5,6-dihydrocyclopenta[c]pyrazol-1(4H)-yl}-1-[4-(2-fluoro-6-methylphenyl)piperidin-1-yl]ethan-1-one]"
14,3,"Cc1c(C2CCN(C(=O)Cn3nc(C(=O)N4CCO[C@H](CO)C4)c4c3C[C@H]3C[C@@H]43)CC2)cccc1C(F)(F)F [Example 4, 2-((3bR,4aR)-3-((S)-2-(hydroxymethyl)morpholine-4-carbonyl)-3b,4,4a,5-tetrahydro-1H-cyclopropa[3,4]cyclopenta[1,2-c]pyrazol-1-yl)-1-(4-(2-methyl-3-(trifluoromethyl)phenyl)piperidin-1-yl)ethanone]"
15,150,"C[C@@H]1CN(C(=O)c2nn(CC(=O)N3CCC(c4ccccc4Cl)CC3)c3c2CCC3)C[C@H](C)O1 [Example 157, 1-[4-(2-chlorophenyl)piperidin-1-yl]-2-{3-[(2R,6S)-2,6-dimethylmorpholine-4-carbonyl]-5,6-dihydrocyclopenta[c]pyrazol-1(4H)-yl}ethan-1-one]"
16,7.8,"C[C@@H]1CN(C(=O)c2nn(CC(=O)N3CCC(c4cccc(Cl)c4Cl)CC3)c3c2CCC3)C[C@H](C)O1 [Example 87, 1-[4-(2,3-dichlorophenyl)piperidin-1-yl]-2-{3-[(2R,6S)-2,6-dimethylmorpholine-4-carbonyl]-5,6-dihydrocyclopenta[c]pyrazol-1(4H)-yl}ethan-1-one]"
17,41.2,"Cc1cccc(C2CCN(C(=O)Cn3nc(C(=O)N4CCN(C(=O)CO)CC4)c4c3C[C@@H]3C[C@H]43)CC2)c1C [Example 28, 1-[4-(2,3-dimethylphenyl)piperidin-1-yl]-2-{(3bS,4aS)-3-[4-(hydroxyacetyl)piperazine-1-carbonyl]-3b,4,4a,5-tetrahydro-1H-cyclopropa[3,4]cyclopenta[1,2-c]pyrazol-1-yl}ethan-1-one]"
18,48.6,"Cc1cc(C2CCN(C(=O)Cn3nc(C(=O)N4C[C@@H](C)O[C@@H](C)C4)c4c3CCC4)CC2)cc(C)c1Cl [Example 116, 1-[4-(4-chloro-3,5-dimethylphenyl)piperidin-1-yl]-2-{3-[(2R,6S)-2,6-dimethylmorpholine-4-carbonyl]-5,6-dihydrocyclopenta[c]pyrazol-1(4H)-yl}ethan-1-one]"
19,89,"C[C@@H]1CN(C(=O)c2nn(CC(=O)N3CCC(c4ccc(C(F)F)c(F)c4)CC3)c3c2CCC3)C[C@H](C)O1 [Example 140, 1-{4-[4-(difluoromethyl)-3-fluorophenyl]piperidin-1-yl}-2-{3-[(2R,6S)-2,6-dimethylmorpholine-4-carbonyl]-5,6-dihydrocyclopenta[c]pyrazol-1(4H)-yl}ethan-1-one]"
20,0.8,"Cc1c(C2CCN(C(=O)Cn3nc(C(=O)N4CCC(O)(CF)CC4)c4c3C[C@H]3C[C@@H]43)CC2)cccc1C(F)(F)F [Example 1, 2-((3bR,4aR)-3-(4-(fluoromethyl)-4-hydroxypiperidine-1-carbonyl)-3b,4,4a,5-tetrahydro-1H-cyclopropa[3,4]cyclopenta[1,2-c]pyrazol-1-yl)-1-(4-(2-methyl-3-(trifluoromethyl)phenyl)piperidin-1-yl)ethanone]"
21,109,"C[C@@H]1CN(C(=O)c2nn(CC(=O)N3CCC(c4ccc(C(F)(F)F)cc4F)CC3)c3c2CCC3)C[C@H](C)O1 [Example 147, 2-{3-[(2R,6S)-2,6-dimethylmorpholine-4-carbonyl]-5,6-dihydrocyclopenta[c]pyrazol-1(4H)-yl}-1-{4-[2-fluoro-4-(trifluoromethyl)phenyl]piperidin-1-yl}ethan-1-one]"
22,79.4,"C[C@@H]1CN(C(=O)c2nn(CC(=O)N3CCC(c4ccccc4)CC3)c3c2CCC3)C[C@H](C)O1 [Example 70, 2-{3-[(2R,6S)-2,6-dimethylmorpholine-4-carbonyl]-5,6-dihydrocyclopenta[c]pyrazol-1(4H)-yl}-1-(4-phenylpiperidin-1-yl)ethan-1-one]"
23,170,"C[C@@H]1CN(C(=O)c2nn(CC(=O)N3CCCC(c4ccccc4)CC3)c3c2CCC3)C[C@H](C)O1 (stereo partly drawn) [Example 74, 2-{3-[(2R,6S)-2,6-dimethylmorpholine-4-carbonyl]-5,6-dihydrocyclopenta[c]pyrazol-1(4H)-yl}-1-(4-phenylazepan-1-yl)ethan-1-one]"
24,2.5,"Cc1c(C2CCN(C(=O)Cn3nc(C(=O)N4CCN(CC(N)=O)CC4)c4c3C[C@H]3C[C@@H]43)CC2)cccc1C(F)(F)F [Example 6, 2-(4-((3bR,4aR)-1-(2-(4-(2-methyl-3-(trifluoromethyl)phenyl)piperidin-1-yl)-2-oxoethyl)-3b,4,4a,5-tetrahydro-1H-cyclopropa[3,4]cyclopenta[1,2-c]pyrazole-3-carbonyl)piperazin-1-yl)acetamide]"
25,144,"C[C@@H]1CN(C(=O)c2nn(CC(=O)N3CCC(c4ccccc4)C(F)(F)C3)c3c2CCC3)C[C@H](C)O1 (stereo partly drawn) [Example 72, 1-(3,3-difluoro-4-phenylpiperidin-1-yl)-2-{3-[(2R,6S)-2,6-dimethylmorpholine-4-carbonyl]-5,6-dihydrocyclopenta[c]pyrazol-1(4H)-yl}ethan-1-one]"
